Source: patent publication US20060258738A1, “Use of dronabinol for treatment of side effects of Hepatitis C therapy” (priority 2005, published 2006)

Columns and labels:
[1] = test system: GI side effects (nausea/vomiting, anorexia and weight loss) related to anti-HCV therapy; assay: Retrospective chart review: open label dronabinol for GI side effects of anti-HCV therapy, positive response; type: in vivo, human; settings: whole cohort
Protocol: A retrospective chart review of 22 patients with chronic HCV receiving IFN (Pegylated n=18, standard n=4) and RBV was performed. All were receiving open label dronabinol for specific GI side effects (nausea/vomiting, anorexia and weight loss) related to anti-HCV therapy. Over half the cohort (13/22) were co-infected with HIV. Demographic, clinical, and virological data was recorded at baseline (pre dronabinol therapy); Body Mass Index (BMI) was calculated at baseline, and at the end of dronabinol therapy.
A positive response to dronabinol was defined as follows: […]
Subjective: Documentation in chart of improvement in symptoms of nausea, vomiting or anorexia, as reported by patient.
Objective: No change or increase in BMI at end of dronabinol treatment compared to baseline.

[2] = Retrospective chart review: adverse events, tolerability and discontinuation of dronabinol

SMILES: CCCCCc1cc(O)c2c(c1)OC(C)(C)[C@@H]1CCC(C)=C[C@@H]21 [dronabinol, delta-9-tetrahydrocannabinol]
- Positive outcome, both for improvement in symptoms and stabilization or increase in BMI [1]: over 40%
- Tolerability ([2]; the 4 members of the cohort aged 60 or greater): well tolerated
- Tolerability ([2]; whole cohort, including those with HIV/HCV): well-tolerated by the majority of the cohort
